The text below walks through data of ChEMBL document CHEMBL4715792, “In Vivo and In Vitro Optimization of Screening Antimalarial Hits toward Lead Molecules for Preclinical Development” (J Med Chem, 2016).

In brackets after ≈: the same amount, converted by molar mass.

What is called solubility is how much of the substance goes into solution per volume. The EC50 is the concentration that produces a half-maximal response. A low value points to a more potent agent. By inhibition in vivo is commonly meant the change of the read-out against control, counted positive when it falls.

A short description of series [1]: Intrinsic clearance in mouse liver microsomes. Format: ADME, Microsome. (In general: Liver microsomes are a subcellular fraction often used to study metabolism.)
Series [2] is described as follows: Aqueous solubility of compound. The class given is physicochemical.
Series [3] can be described thus: Selectivity index, ratio of CC50 for human MRC5 cells to EC50 for antimalarial activity against Plasmodium falciparum 3D7. Format: toxicity. To be noted: read-out: Selectivity Index.
The subject of series [4] is Plasmodium falciparum. Nature of the series: Antimalarial activity against Plasmodium falciparum 3D7. The class given is functional, organism-based.
In series [5] the test system is Plasmodium berghei. The experiment in a line: Antimalarial activity against Plasmodium berghei infected in mouse assessed as reduction in parasitemia at 1 mg/kg, po dosed 4 times. Format: functional.
In series [6] the test system is Plasmodium berghei. The experiment in a line: Antimalarial activity against Plasmodium berghei infected in orally dosed mouse assessed as reduction in parasitemia. The class given is functional. The following applies: po.
In series [7] the test system is Plasmodium falciparum. The experiment in a line: Antimalarial activity against drug resistant Plasmodium falciparum D6. The class given is functional, organism-based.
In series [8] the test system is Plasmodium falciparum. Nature of the series: Antimalarial activity against drug resistant Plasmodium falciparum V1/S. Format: functional, organism-based.
In series [9] the test system is Plasmodium falciparum. The experiment in a line: Antimalarial activity against drug resistant Plasmodium falciparum 7G8. Format: functional, organism-based.
Series [10] relates to Plasmodium falciparum. The experiment in a line: Antimalarial activity against drug resistant Plasmodium falciparum TM90C2A. The class given is functional, organism-based.
Series [11] deals with Plasmodium falciparum. The experiment in a line: Antimalarial activity against drug resistant Plasmodium falciparum K1. The class given is functional, organism-based.
Series [12] has as its system Plasmodium falciparum. Nature of the series: Antimalarial activity against drug resistant Plasmodium falciparum W2. The class given is functional, organism-based.
Series [13] concerns Plasmodium falciparum. The experiment in a line: Antimalarial activity against drug resistant Plasmodium falciparum NF5. Format: functional, organism-based.

Turning to `Cc1ccc(-c2cc(C(=O)Nc3cccnc3)c3cc(Br)ccc3n2)cc1`, the Intrinsic clearance result in series [1] is given as “>= 5 ml/min/g”. The molecule further showed a solubility in [2] of no more than 39 µM. In [3], the selectivity ratio is greater than 100.
`Cc1ccc(-c2cc(C(=O)Nc3cccnc3)c3cc(F)ccc3n2)cc1` yielded an Intrinsic clearance in series [1] of 8.6 mL/min/g. This molecule gave a solubility in series [2] of 36 µM (≈ 12.9 µg/mL).
The molecule `Cc1ccc(-c2cc(C(=O)NCCN3CCCC3)c3cc(F)ccc3n2)cc1` returned an Intrinsic clearance in [1] of 3.4 mL/min/g. Moreover, it took 700 nM to reach a half-maximal effect in [4] (EC50).
In the case of `O=C(NCCN1CCCC1)c1cc(-c2ccc(CN3CCOCC3)cc2)nc2ccc(F)cc12` [CABAMIQUINE], in series [5], the inhibition in vivo at 1 mg/kg is greater than 99%. Also, the ED90 in [6] came out at 0.3 mg/kg. In addition, the EC50 in [7], in series [8], in [9], in series [10], in series [11] and in series [12] was less than 1 nM in each case. Moreover, the EC50 is less than 1 nM in series [13] and 1 nM in [4]. In addition, the Intrinsic clearance in series [1] was less than 0.9 mL/min/g.
